Blank lines part the entries; values can stand above or below the compound they belong to.
What was measured:
Conditions in all cases: read-out: IC50
[1] = target: T1, Inhibitor of nuclear factor kappa-B kinase subunit beta (Homo sapiens, UniProt O14920); assay: biochemical; assay type: cell-based
T1 sequence (O14920 whole entry): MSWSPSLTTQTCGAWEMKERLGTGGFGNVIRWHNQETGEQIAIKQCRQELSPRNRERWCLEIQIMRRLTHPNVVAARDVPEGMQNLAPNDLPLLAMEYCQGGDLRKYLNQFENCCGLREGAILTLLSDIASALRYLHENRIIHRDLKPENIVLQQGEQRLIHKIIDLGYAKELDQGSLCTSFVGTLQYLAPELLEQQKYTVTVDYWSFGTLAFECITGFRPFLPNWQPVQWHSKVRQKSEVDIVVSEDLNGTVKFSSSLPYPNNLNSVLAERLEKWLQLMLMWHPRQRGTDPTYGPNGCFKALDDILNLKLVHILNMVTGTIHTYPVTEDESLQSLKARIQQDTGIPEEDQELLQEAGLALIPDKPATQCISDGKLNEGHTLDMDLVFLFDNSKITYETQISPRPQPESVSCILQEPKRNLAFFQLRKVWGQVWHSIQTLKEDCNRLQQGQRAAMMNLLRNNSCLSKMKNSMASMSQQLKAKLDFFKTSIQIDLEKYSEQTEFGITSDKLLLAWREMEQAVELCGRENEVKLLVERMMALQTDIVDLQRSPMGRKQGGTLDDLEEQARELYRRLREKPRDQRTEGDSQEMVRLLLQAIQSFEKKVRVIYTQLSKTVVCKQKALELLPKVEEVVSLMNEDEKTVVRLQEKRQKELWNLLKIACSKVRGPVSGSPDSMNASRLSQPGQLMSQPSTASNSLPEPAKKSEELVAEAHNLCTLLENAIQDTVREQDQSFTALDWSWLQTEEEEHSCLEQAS

[2] = target: Mitogen-activated protein kinase 8 (Homo sapiens, UniProt P45983); assay: Inhibition of JNK1 expressed in Escherichia coli or baculovirus-infected insect cells by TR-FRET assay
[3] = target: RAC-alpha serine/threonine-protein kinase (Homo sapiens, UniProt P31749); assay: Inhibition of AKT1 expressed in Escherichia coli or baculovirus-infected insect cells by scintillation proximity assay
RAC-alpha serine/threonine-protein kinase, sequence (P31749 whole entry): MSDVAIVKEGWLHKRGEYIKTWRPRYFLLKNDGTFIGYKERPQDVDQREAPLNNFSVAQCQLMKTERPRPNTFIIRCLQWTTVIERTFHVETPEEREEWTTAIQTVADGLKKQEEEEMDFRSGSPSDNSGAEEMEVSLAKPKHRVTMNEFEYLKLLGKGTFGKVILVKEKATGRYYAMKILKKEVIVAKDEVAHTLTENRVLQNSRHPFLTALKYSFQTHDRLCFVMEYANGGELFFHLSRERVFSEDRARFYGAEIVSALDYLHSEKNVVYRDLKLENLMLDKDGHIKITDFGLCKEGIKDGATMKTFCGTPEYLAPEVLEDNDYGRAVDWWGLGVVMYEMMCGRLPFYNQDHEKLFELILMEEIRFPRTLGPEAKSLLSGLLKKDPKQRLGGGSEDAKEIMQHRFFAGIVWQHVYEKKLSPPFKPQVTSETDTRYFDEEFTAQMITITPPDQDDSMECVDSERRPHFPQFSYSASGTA

Mitogen-activated protein kinase 8, sequence (P45983 whole entry): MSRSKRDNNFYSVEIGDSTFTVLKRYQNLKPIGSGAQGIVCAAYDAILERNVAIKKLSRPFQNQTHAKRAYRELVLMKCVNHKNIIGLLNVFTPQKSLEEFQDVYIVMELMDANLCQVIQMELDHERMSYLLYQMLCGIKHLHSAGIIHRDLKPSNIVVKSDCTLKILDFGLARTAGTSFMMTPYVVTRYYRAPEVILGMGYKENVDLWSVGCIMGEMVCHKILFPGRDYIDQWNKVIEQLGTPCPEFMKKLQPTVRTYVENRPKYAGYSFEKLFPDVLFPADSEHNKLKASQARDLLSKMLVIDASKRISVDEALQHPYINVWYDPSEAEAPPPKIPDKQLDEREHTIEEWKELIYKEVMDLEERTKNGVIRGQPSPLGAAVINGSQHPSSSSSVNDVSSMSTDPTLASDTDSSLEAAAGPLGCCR

IC50 [1]: 15 nM
Structure (SMILES): Cc1cc2c(-c3ccc(S(=O)(=O)N(C)CCO)cc3)ccnc2[nH]1

IC50 [2]: < 500 nM
Structure (SMILES): Nc1ccc(-c2cnc3[nH]cc(-c4ccoc4)c3c2)cc1

IC50 [3]: 190 nM
Structure (SMILES): NCC(NC(=O)c1ccc(-c2ccnc3[nH]ccc23)s1)c1ccccc1 (stereo not drawn)

From ChEMBL document CHEMBL1817560, “Selectivity of kinase inhibitor fragments” (J Med Chem, 2011)
